Data on 2 molecules can be found in patent US20110207691A1, “COBALAMIN COMPOSITIONS FOR THE TREATMENT OF CANCER” (BEBAAS, INC., priority 2006, published 2011).

Several values for one entry are separate records, joined by “and”; a condition that tells them apart may be missing. Equal entries are not always repeated.

In test [1] the test system is BD-MB231 breast cancer cells. The test can be described thus: Cell survival count after treatment, BD-MB231 breast cancer cells. It is filed as cell-based. The settings on record: cultures grown for 48 hours, then counted. The method, then: Cell cultures were grown and maintained using standard protocols for the respective cell line. Suitable culturing methods are described in, for example, Cancer Cell Culture: Method and Protocols (Methods in Molecular Medicine) Langdon (Ed) Humana Press, 2003 and General Techniques of Cell Culture (Handbooks in Practical Animal Cell Biology) Harrison and Rae, Cambridge University Press, 2005. Cultures were grown for 48 hours and subsequently counted to determine the number surviving after treatment with hydroxycobalamin, methylcobalamin or adenosylcobalamin and the aforementioned cobalamin analogs in combination with a nitric oxide-cobalamin complex. Determination of cell survival can be accomplished using, for example, a hemocytometer and Trypan Blue staining. […] Total number of cells can be determined living and dead cells can be determined and treatments compared.

The subject of test [2] is WM9 melanoma cells. To be noted: cited from earlier work.

On to `C/C1=C2/[N-][C@H]([C@H](CC(N)=O)[C@@]2(C)CCC(=O)NC[C@@H](C)OP(=O)([O-])O[C@H]2[C@@H](O)[C@@H](n3cnc4cc(C)c(C)cc43)O[C@@H]2CO)[C@]2(C)N=C(/C(C)=C3N=C(/C=C4N=C1[C@@H](CCC(N)=O)C\4(C)C)[C@@H](CCC(N)=O)[C@]\3(C)CC(N)=O)[C@@H](CCC(N)=O)[C@]2(C)CC(N)=O.[Co+3].[OH-]` [hydroxycobalamin], for which, in test [1], the “number of surviving cells (mean)” value is 472 and 729 and 728.
For nitrosylcobalamin, the “effect on WM9 melanoma cells” value in test [2] is “anti-proliferative effect”.
